Test results taken from ChEMBL document CHEMBL1138545, “Synthesis and antimicrobial activities of some new triazolothiadiazoles bearing 4-methylthiobenzyl moiety” (2009).
Values after ≈ are worked out from the molar mass of the structure shown.

Assays:
Klebsiella pneumoniae [1] = assay: Antibacterial activity against Klebsiella pneumoniae at 10 ug/mL after 24 hrs by the disk diffusion method; assay type: functional
Pseudomonas aeruginosa [2] = assay: microbe, parasite or virus in culture; details: ATTC 27853, 24 h, read-out: IZ
Description: Antibacterial activity against Pseudomonas aeruginosa ATTC 27853 at 10 ug/mL after 24 hrs by the disk diffusion method

Staphylococcus aureus [3] = assay: microbe, parasite or virus in culture; details: ATTC 25922, 24 h
Description: Antibacterial activity against Staphylococcus aureus ATTC 25922 at 10 ug/mL after 24 hrs by the disk diffusion method

Escherichia coli [4] = assay: microbe, parasite or virus in culture; details: ATTC 25922, 24 h
Description: Antibacterial activity against Escherichia coli ATTC 25922 at 10 ug/mL after 24 hrs by the disk diffusion method

Pseudomonas aeruginosa [5] = assay: Antibacterial activity against Pseudomonas aeruginosa ATTC 27853 after 24 hrs by the disk diffusion method; assay type: functional; details: for MIC: Pseudomonas aeruginosa, ATTC 27853, 24 h
Staphylococcus aureus [6] = assay: Antibacterial activity against Staphylococcus aureus ATTC […] after 24 hrs by the disk diffusion method; assay type: functional; details: for MIC: Staphylococcus aureus, 24 h
Candida albicans = assay: Antifungal activity against Candida albicans NICM 300 after 3 to days by serial plate dilution method; assay type: functional; details: for MIC: Candida albicans, NICM 300
Aspergillus fumigatus = assay: Antifungal activity against Aspergillus fumigatus NICM 902 after 3 to days by serial plate dilution method; assay type: functional; details: for MIC: Aspergillus fumigatus, NICM 902
[7] = tested on: Trichophyton mentagrophytes; assay: Antifungal activity against Trichophyton mentagrophytes after 3 to days by serial plate dilution method; assay type: functional; details: for MIC: Trichophyton mentagrophytes
Escherichia coli [8] = assay: Antibacterial activity against Escherichia coli ATTC 25922 after 24 hrs by the disk diffusion method; assay type: functional; details: for MIC: Escherichia coli, ATTC 25922, 24 h
Aspergillus flavus = assay: Antifungal activity against Aspergillus flavus NICM 524 after 3 to days by serial plate dilution method; assay type: functional; details: for MIC: Aspergillus flavus, NICM 524
Klebsiella pneumoniae [9] = assay: Antibacterial activity against Klebsiella pneumoniae after 24 hrs by the disk diffusion method; assay type: functional; details: for MIC: Klebsiella pneumoniae, 24 h

SMILES	MIC (Pseudomonas aeruginosa [5])	MIC (Staphylococcus aureus [6])	MIC (Candida albicans)	MIC (Aspergillus fumigatus)	MIC [7]	MIC (Escherichia coli [8])	MIC (Aspergillus flavus)	MIC (Klebsiella pneumoniae [9])	inhibition zone (IZ) (Pseudomonas aeruginosa [5])	inhibition zone (IZ) (Staphylococcus aureus [6])	diameter of the inhibition zone (DIZ) (Candida albicans)	diameter of the inhibition zone (DIZ) (Aspergillus fumigatus)	diameter of the inhibition zone (DIZ) [7]	inhibition zone (IZ) (Escherichia coli [8])	diameter of the inhibition zone (DIZ) (Aspergillus flavus)	inhibition zone (IZ) (Klebsiella pneumoniae [9])	further results
O=C(O)c1cn(C2CC2)c2cc(N3CCNCC3)c(F)cc2c1=O [CIPROFLOXACIN]	–	–	–	–	–	–	–	–	–	–	–	–	–	–	–	–	MIC (Klebsiella pneumoniae [1]): 6 µg/mL (≈ 18.1 µM); zone of inhibition at 10 µg/mL (Klebsiella pneumoniae [1]; read-out: IZ): 25 mm; zone of inhibition at 10 µg/mL (Pseudomonas aeruginosa [2]): 18 mm; MIC (Staphylococcus aureus [3]): 12.5 µg/mL (≈ 37.7 µM); zone of inhibition at 10 µg/mL (Staphylococcus aureus [3]; read-out: IZ): 19 mm; MIC (Escherichia coli [4]): 6 µg/mL (≈ 18.1 µM)
CSc1ccc(Cc2nnc3sc(-c4ccc(Br)cc4)nn23)cc1	25 µg/mL (≈ 59.9 µM)	25 µg/mL (≈ 59.9 µM)	25 µg/mL (≈ 59.9 µM)	25 µg/mL (≈ 59.9 µM)	25 µg/mL (≈ 59.9 µM)	25 µg/mL (≈ 59.9 µM)	12.5 µg/mL (≈ 30 µM)	25 µg/mL (≈ 59.9 µM)	16 mm	15 mm	13 mm	14 mm	13 mm	13 mm	15 mm	20 mm	–

The remaining molecules from weak to strong by MIC (Pseudomonas aeruginosa [5]), led by results:

MIC (Pseudomonas aeruginosa [5])	MIC (Staphylococcus aureus [6])	MIC (Candida albicans)	MIC (Aspergillus fumigatus)	MIC [7]	MIC (Escherichia coli [8])	MIC (Aspergillus flavus)	MIC (Klebsiella pneumoniae [9])	SMILES	inhibition zone (IZ) (Pseudomonas aeruginosa [5])	inhibition zone (IZ) (Staphylococcus aureus [6])	diameter of the inhibition zone (DIZ) (Candida albicans)	diameter of the inhibition zone (DIZ) (Aspergillus fumigatus)	diameter of the inhibition zone (DIZ) [7]	inhibition zone (IZ) (Escherichia coli [8])	diameter of the inhibition zone (DIZ) (Aspergillus flavus)	inhibition zone (IZ) (Klebsiella pneumoniae [9])	further results
6 µg/mL (≈ 13.7 µM)	12.5 µg/mL (≈ 28.5 µM)	25 µg/mL (≈ 57 µM)	12.5 µg/mL (≈ 28.5 µM)	25 µg/mL (≈ 57 µM)	6 µg/mL (≈ 13.7 µM)	25 µg/mL (≈ 57 µM)	12.5 µg/mL (≈ 28.5 µM)	CSc1ccc(Cc2nnc3sc(-c4ccc(-c5ccc(Cl)cc5)o4)nn23)cc1	18 mm	18 mm	12 mm	17 mm	16 mm	20 mm	10 mm	22 mm	–
6 µg/mL (≈ 15.6 µM)	12.5 µg/mL (≈ 32.6 µM)	25 µg/mL (≈ 65.2 µM)	25 µg/mL (≈ 65.2 µM)	25 µg/mL (≈ 65.2 µM)	12.5 µg/mL (≈ 32.6 µM)	25 µg/mL (≈ 65.2 µM)	12.5 µg/mL (≈ 32.6 µM)	CSc1ccc(Cc2nnc3sc(-c4ccc([N+](=O)[O-])cc4)nn23)cc1	18 mm	16 mm	14 mm	15 mm	11 mm	17 mm	11 mm	13 mm	–
6 µg/mL (≈ 12.7 µM)	25 µg/mL (≈ 52.8 µM)	6 µg/mL (≈ 12.7 µM)	25 µg/mL (≈ 52.8 µM)	12.5 µg/mL (≈ 26.4 µM)	12.5 µg/mL (≈ 26.4 µM)	6 µg/mL (≈ 12.7 µM)	12.5 µg/mL (≈ 26.4 µM)	CSc1ccc(Cc2nnc3sc(-c4ccc(-c5cc(Cl)ccc5Cl)o4)nn23)cc1	18 mm	16 mm	20 mm	13 mm	17 mm	16 mm	18 mm	20 mm	–
